Test results taken from article PMC4977651, “Molecular features of biguanides required for targeting of mitochondrial respiratory complex I and activation of AMP-kinase” (BMC Biology, 2016).
Values joined by “and” are separate entries in the source; they are usually repeats but may differ in a detail not shown here. Equal values may be shown once.

Experiments:
[1] = test system: 143B cells; assay: Rotenone-sensitive oxygen consumption rate in intact 143B cells; assay type: cell-based, human; details: for rotenone sensitive OCR after 6 hours of biguanide exposure, % control, average / rotenone sensitive OCR after 6 hours of biguanide exposure, average: biguanide at IC50/10; for rotenone sensitive OCR after 6 hours of biguanide exposure, average: OCR normalized to OCR immediately prior to biguanide addition; for inhibition of rotenone-sensitive respiration (in words): intact 143B cells, biguanide at IC50/10, monitored for 6 h
Protocol: (§1) 143B (CRL-8303 from ATCC), HepG2 (85011430 from The Health Protection Agency), and MDBK (CCL-22 from ATCC) cells were grown on Dulbecco’s modified Eagle’s medium (DMEM) supplemented with 10 % fetal bovine serum (FBS, Thermo Fisher Scientific) at 37 °C in 5 % CO2. All cells were confirmed as negative for mycoplasma.
(§2) Oxygen consumption rates (OCRs) were measured using a Seahorse XF96 extracellular flux analyzer at 37 °C. For intact cell measurements, 1.4 × 10^4 143B, HepG2, or MDBK cells were plated (per well) in DMEM containing 10 % FBS into Seahorse Bioscience Inc. XF96 plates and incubated for ~12 h at 37 °C in 5 % CO2. Then, the medium was exchanged for assay buffer containing DMEM, 4.5 g L^−1 glucose, 1 mM pyruvate, 32 mM NaCl, 2 mM GlutaMAX, 15 mg L^−1 phenol red, and 20 mM HEPES (pH 7.4 at 37 °C) and the cells placed in a CO2-free incubator at 37 °C for 30 min. Basal oxygen consumption rates were established before the addition of biguanides at one-tenth of their IC50 (IC50/10), and followed for ~ 6 h before the addition of rotenone (2 μM).
(§3) Rotenone-sensitive OCRs were calculated by subtracting the rotenone-insensitive rates (determined at the end of the experiment). OCRs were normalized by dividing by the OCR recorded immediately prior to the addition of biguanide. For rate of uptake calculations, the OCRs at time points after biguanide addition were divided by the OCRs at the same time points in control experiments. Data from wells with failed port injections were excluded from the analyses. The respiratory control ratio (RCR) values (state III versus state IV respiration) were ~11 and ~6 for permeabilized MDBK and 143B cells, respectively.

[2] = biological target: mouse heart mitochondrial membranes (complex I) (Mus musculus, UniProt P03888+P03899+Q91WD5+Q9DC70); assay: NADH:O2 oxidoreduction by mouse heart mitochondrial membranes; assay type: biochemical; details: for HillSlope (best fit value) / IC50 / LogIC50 (best fit value): Prism variable slope fit; for IC50: Bottom 0, Top 100, read-out: IC50 (best fit value); for LogIC50 (best fit value): log of IC50 in mM
Protocol: Complex I and mitochondrial membranes were prepared from Bos taurus (bovine) heart. Intact mitochondria were isolated from rat liver and mouse heart and liver. Membranes were prepared from mouse heart mitochondria by 5 s bursts of sonication at 4 °C and collected by centrifugation (75,000 × g, 1 h).
Assays were performed at 32 °C in a SpectraMax 96-well plate reader. NADH:decylubiquinone oxidoreduction by complex I at 0.5 μg mL^−1 was measured in 20 mM Tris-HCl (pH 7.2), 0.15 % soy bean asolectin (Avanti Polar Lipids), and 0.15 % 3-((3-cholamidopropyl)dimethylammonium)-1-propanesulfonate (CHAPS, Merck Chemicals Ltd), with 200 μM decylubiquinone and 200 μM NADH, and monitored using ε340–380(NADH) = 4.81 mM^−1 cm^−1 [23]. Catalysis was initiated by addition of NADH and maximal rates determined by linear regression. NADH:O2 oxidoreduction by membranes was measured similarly but using 5 μg mL^−1 membranes in 10 mM Tris-HCl (pH 7.4) and 250 mM sucrose using 200 μM NADH and supplemented with 0.15 mM horse heart cytochrome c (Sigma-Aldrich Ltd.). Succinate:O2 oxidoreduction was measured using 40 μg mL^−1 membranes in 5 mM succinate in 10 mM Tris-HCl (pH 7.4) as described previously. Control experiments included NaCl (to match the ionic strength) or DMSO, as appropriate.
Experimental values are reported as mean averages ± standard deviation (SD) of technical replicates for large sample sizes and mean averages ± standard error of the mean (SEM) of technical replicates for small sample sizes. Data were analyzed by the unpaired two-tailed Student’s t test. IC50 values were determined using the standard dose-effect relationship (activity (%) = 100 × IC50 / (IC50 + [inhibitor]^m) with the Hill Slope (m) set to unity for purified complex I) and are reported with 95 % confidence intervals.

[3] = test system: HepG2 cells; assay: Rotenone-sensitive oxygen consumption rate in intact HepG2 cells; assay type: cell-based, human; details: for rotenone sensitive OCR after 6 hours of biguanide exposure, % control, average / rotenone sensitive OCR after 6 hours of biguanide exposure, average: HEPG2 cells, biguanide at IC50/10; for rotenone sensitive OCR after 6 hours of biguanide exposure, average: OCR normalized to OCR immediately prior to biguanide addition; for inhibition of rotenone-sensitive respiration (in words): intact HepG2 cells, biguanide at IC50/10, monitored for 6 h
Protocol: as §1, §2, §3

[4] = test system: MDBK cells; assay: Rotenone-sensitive oxygen consumption rate in intact MDBK cells; assay type: cell-based, Bos taurus; design: key to rotenone sensitive OCR after 40 mins of biguanide exposure / rotenone sensitive OCR after 40 mins of biguanide exposure, average: % of OCR recorded immediately before biguanide addition; details: biguanide at IC50/10; for rotenone sensitive OCR after 6 hours of biguanide exposure, % control, average / rotenone sensitive OCR after 6 hours of biguanide exposure, average: MDBK cells; for rotenone sensitive OCR after 6 hours of biguanide exposure, average: OCR normalized to OCR immediately prior to biguanide addition; for rotenone sensitive OCR after 40 mins of biguanide exposure, % control, average / rotenone sensitive OCR after 40 mins of biguanide exposure, average / rotenone sensitive OCR after 40 mins of biguanide exposure / rotenone sensitive OCR after 40 mins of biguanide exposure, % control: MDBK intact cells; for rotenone sensitive OCR after 40 mins of biguanide exposure, % control, average / rotenone sensitive OCR after 40 mins of biguanide exposure, average: average of replicates; for rotenone sensitive OCR after 40 mins of biguanide exposure / rotenone sensitive OCR after 40 mins of biguanide exposure, % control: individual replicates
Protocol: as §1, §2, §3

[5] = test system: acetyl-coA carboxylase (phospho-Ser79); assay: AMPK activation, western blot of phospho-acetyl-coA carboxylase in MDBK cells; assay type: cell-based, Bos taurus; details: for ACC, average normalised to control: Averages of experiments 1-3, 18 hours; for p-ACC: band intensity
Protocol: MDBK cells were seeded at 1 × 10^6 cells per 6 cm dish in DMEM containing 10 % FBS. […] After 18 h cells were harvested by a rapid lysis procedure: cells were rinsed with PBS, then lysed using ice-cold buffer containing 50 mM HEPES, 1 mM EDTA, 10 % glycerol, 50 mM NaF, 5 mM sodium pyrophosphate, 1 % Triton-X100, 1 mM dithiothreitol (DTT), and a protease inhibitor cocktail (Roche). The cell lysate was centrifuged at 14,000 × g for 20 min at 4 °C and the protein concentration of the supernatant determined by bicinchoninic acid assay. The lysate was analyzed using Novex 3–12 % bis-Tris gels run in 3-(N-morpholino)propanesulfonic acid (MOPS) buffer (20 μg of protein per lane) followed by transfer to low fluorescence polyvinylidene fluoride membranes by wet transfer. Primary rabbit antibodies for AMPK-β (57C12), AMPK-α (phospho-Thr172) (40H9), and acetyl-coA carboxylase (phospho-Ser79) (Cell Signaling Technology) were incubated overnight with the membrane (1:1000 dilution) in Odyssey blocking buffer at 4 °C. A fluorescent secondary antibody was used (IRDYE800CW from LI-COR Biosciences, 1:20,000 dilution) with a LI-COR Odyssey imaging system.

mouse heart mitochondrial membranes (complex I), sequence (P03899 whole entry): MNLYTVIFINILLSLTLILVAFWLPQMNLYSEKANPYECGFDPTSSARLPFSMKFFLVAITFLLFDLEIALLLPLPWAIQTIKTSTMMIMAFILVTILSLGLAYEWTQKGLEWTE
mouse heart mitochondrial membranes (complex I), sequence (P03888 whole entry): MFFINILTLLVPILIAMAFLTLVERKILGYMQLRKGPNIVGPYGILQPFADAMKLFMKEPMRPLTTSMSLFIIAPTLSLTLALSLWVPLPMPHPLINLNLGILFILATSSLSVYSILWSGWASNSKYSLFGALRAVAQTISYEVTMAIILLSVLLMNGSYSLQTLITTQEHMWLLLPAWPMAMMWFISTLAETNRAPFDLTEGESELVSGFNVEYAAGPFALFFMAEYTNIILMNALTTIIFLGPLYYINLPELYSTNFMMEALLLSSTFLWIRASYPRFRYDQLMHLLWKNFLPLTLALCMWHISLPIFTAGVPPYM
mouse heart mitochondrial membranes (complex I), sequence (Q9DC70 36-224): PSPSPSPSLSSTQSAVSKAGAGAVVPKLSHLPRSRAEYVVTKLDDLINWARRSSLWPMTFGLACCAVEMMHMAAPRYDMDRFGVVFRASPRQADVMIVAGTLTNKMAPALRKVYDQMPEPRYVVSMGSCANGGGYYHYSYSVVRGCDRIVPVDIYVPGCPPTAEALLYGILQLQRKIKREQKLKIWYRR
mouse heart mitochondrial membranes (complex I), sequence (Q91WD5 34-463): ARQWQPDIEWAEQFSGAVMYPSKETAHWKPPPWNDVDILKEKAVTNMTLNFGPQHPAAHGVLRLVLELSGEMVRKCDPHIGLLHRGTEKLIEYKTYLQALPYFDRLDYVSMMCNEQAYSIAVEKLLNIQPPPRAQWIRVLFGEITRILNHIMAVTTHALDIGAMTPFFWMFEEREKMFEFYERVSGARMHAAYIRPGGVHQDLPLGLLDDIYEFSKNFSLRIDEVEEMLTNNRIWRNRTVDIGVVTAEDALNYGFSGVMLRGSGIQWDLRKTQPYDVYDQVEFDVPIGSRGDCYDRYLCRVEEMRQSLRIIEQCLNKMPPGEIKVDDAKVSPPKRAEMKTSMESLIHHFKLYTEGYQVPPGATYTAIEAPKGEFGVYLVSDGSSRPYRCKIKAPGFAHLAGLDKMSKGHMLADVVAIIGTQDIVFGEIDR

| Structure (SMILES) | rotenone sensitive OCR after 6 hours of biguanide exposure, % control, average ([1]; 143B cells) [% control] | rotenone sensitive OCR after 6 hours of biguanide exposure, average ([1]; 143B cells) | inhibition of rotenone-sensitive respiration (in words) [1] | HillSlope (best fit value) [2] | IC50 [2] [mM] | LogIC50 (best fit value) [2] | rotenone sensitive OCR after 6 hours of biguanide exposure, % control, average [3] [% control] | rotenone sensitive OCR after 6 hours of biguanide exposure, average [3] | inhibition of rotenone-sensitive respiration (in words) [3] | rotenone sensitive OCR after 6 hours of biguanide exposure, % control, average [4] [% control] | rotenone sensitive OCR after 6 hours of biguanide exposure, average [4] | rotenone sensitive OCR after 40 mins of biguanide exposure, % control, average [4] [% control] | rotenone sensitive OCR after 40 mins of biguanide exposure, average [4] | rotenone sensitive OCR after 40 mins of biguanide exposure [4] | rotenone sensitive OCR after 40 mins of biguanide exposure, % control [4] | ACC, average normalised to control [5] | p-ACC / AMPK beta ([5]; Experiment 1, 18 hours) | p-ACC / AMPK beta normalised to control ([5]; Experiment 1, 18 hours) | p-ACC ([5]; Experiment 1, 18 hours) | p-ACC / AMPK beta ([5]; Experiment 2, 18 hours) | further results |
| --- | --- | --- | --- | --- | --- | --- | --- | --- | --- | --- | --- | --- | --- | --- | --- | --- | --- | --- | --- | --- | --- |
| NC(N)=NC(N)=NCc1ccccc1 [compound 3, 2-benzyl-1-(diaminomethylidene)guanidine] | 3.11 | 3.64 | inhibit respiration | -1.132 | 3.18 | 0.5023 | 1.26 | 1.29 | inhibit respiration | 18.14 | 18.19 | 88.51 | 90.06 | 86.89 and 91.07 and 89.16 and 91.81 and 91.02 and 90.42 | 85.39 % control and 89.50 % control and 87.62 % control and 90.23 % control and 89.45 % control and 88.86 % control | 12.79 | 2.45 | 12.63 | 1150 | 2.31 | remaining activity at 130 µM ([2]; inhibitor 0.13 mM, read-out: average % (rate, % of no-inhibitor control)): 99.2%; remaining activity at 250 µM ([2]; inhibitor 0.25 mM, read-out: average % (rate, % of no-inhibitor control)): 93.8%; remaining activity at 500 µM ([2]; inhibitor 0.50 mM, read-out: average % (rate, % of no-inhibitor control)): 86.3%; remaining activity at 1000 µM ([2]; inhibitor 1.00 mM, read-out: average % (rate, % of no-inhibitor control)): 85%; remaining activity at 5000 µM ([2]; inhibitor 5.00 mM, read-out: average % (rate, % of no-inhibitor control)): 35.4%; remaining activity at 10000 µM ([2]; inhibitor 10.00 mM, read-out: average % (rate, % of no-inhibitor control)): 25.3%; p-ACC / AMPK beta normalised to control ([5]; Experiment 2, 18 hours): 14.32; p-ACC ([5]; Experiment 2, 18 hours): 699; p-ACC / AMPK beta ([5]; Experiment 3, 18 hours): 3.41; p-ACC / AMPK beta normalised to control ([5]; Experiment 3, 18 hours): 11.43; p-ACC ([5]; Experiment 3, 18 hours): 770 |
| CC(C)N=C(N)N=C(N)N [compound 4, 1-(diaminomethylidene)-2-(propan-2-yl)guanidine] | 0.91 | 1.07 | inhibit respiration | -1.082 | 30.1 | 1.478 | 0.42 | 0.43 | inhibit respiration | 18.29 | 18.34 | 93.72 | 95.36 | 95.78 and 95.98 and 96.95 and 94.61 and 94.86 and 94.00 | 94.13 % control and 94.32 % control and 95.28 % control and 92.98 % control and 93.22 % control and 92.38 % control | 13.65 | 2.64 | 13.60 | 1170 | 2.65 | estimated rate of uptake into mitochondria ([1]; 143B cells, 3 mM in the extracellular medium): > 1.5 mM/min; remaining activity at 620 µM ([2]; inhibitor 0.62 mM, read-out: average % (rate, % of no-inhibitor control)): 103%; remaining activity at 1320 µM ([2]; inhibitor 1.32 mM, read-out: average % (rate, % of no-inhibitor control)): 99.1%; remaining activity at 3120 µM ([2]; inhibitor 3.12 mM, read-out: average % (rate, % of no-inhibitor control)): 93.2%; remaining activity at 6250 µM ([2]; inhibitor 6.25 mM, read-out: average % (rate, % of no-inhibitor control)): 80.8%; remaining activity at 15600 µM ([2]; inhibitor 15.60 mM, read-out: average % (rate, % of no-inhibitor control)): 67.2%; remaining activity at 62500 µM ([2]; inhibitor 62.50 mM, read-out: average % (rate, % of no-inhibitor control)): 30.7%; estimated rate of uptake into mitochondria ([3]; HepG2 cells, 3 mM in the extracellular medium): > 1.5 mM/min; p-ACC / AMPK beta normalised to control ([5]; Experiment 2, 18 hours): 16.42; p-ACC ([5]; Experiment 2, 18 hours): 693; p-ACC / AMPK beta ([5]; Experiment 3, 18 hours): 3.25; p-ACC / AMPK beta normalised to control ([5]; Experiment 3, 18 hours): 10.92; p-ACC ([5]; Experiment 3, 18 hours): 641 |
